Source: US6849594B1, “Purification and use of human recombinant cartilage oligomeric matrix protein” (priority 1999, dated 2005)
Where two headings read alike, the source gives them in different places.

Legend:
[1] = target: T1, hCOMP (Homo sapiens, UniProt P49747); experiment: Affinity co-electrophoresis (ACE) binding of hCOMP to glycosaminoglycans
T1 construct: transfected with full length human COMP cDNA, they were able to process and secrete hCOMP; made in house
Excerpt: Affinity co-electrophoresis (ACE) was used to quantify the binding of hCOMP to heparin and other GAGs, including chondroitin sulfates from cartilage. Values are given in nM, and in cases where a standard deviation is reported, represent the mean of two determinations.
Affinity co-electrophoresis (ACE) (San Antonio et al., 1993) was used to quantify the binding of hCOMP to heparin and other commercially available GAGs derived from tissue sources, including chondroitin sulfates from cartilage, and values of Kd were measured. […] This is in agreement with our observation that hCOMP binds to heparin-Sepharose. […] To better ascertain potential roles of GAGs and proteoglycans in COMP function, heparan sulfate, keratan sulfate, and three chondroitin sulfates (chondroitin-6-sulfate, C6S; chondroitin-4-sulfate; C4S; and dermatan sulfate, DS) were tested for binding to hCOMP in the presence of 2 mM calcium using ACE (Table 1).
To further determine whether the conformation of the calcium-binding type 3 repeats was critical to GAG binding, hCOMP was tested for binding to heparin and C6S in the presence of 5 mM EDTA. […] While heparin binding was reduced only 3- to 5-fold by EDTA treatment, C6S binding appeared to be abolished by this treatment.

[2] = test system: TC1a cells (chondrocyte-derived cell line), monolayer culture; experiment: Attachment of TC1a cells grown in monolayer to coated protein; type: cell-based, human
Experimental: To prepare cells grown in monolayer for attachment assays, cells grown in 10 cm tissue culture plates were washed twice with HEPES buffered saline (HBS), and treated with 1 ml of 0.1 mg/ml TPCK-treated trypsin (Worthington, Lakewood, N.J.) in HBS at 37° C. for 5 minutes. Trypsinization was stopped with 2 ml of 0.5 mg/ml soybean trypsin inhibitor (Sigma) in HBS with 1 mM CaCl2 (HBS/C). Cells were flushed off the plate as a single cell suspension, sedimented and washed twice with trypsin inhibitor solution. Subsequently, cells were resuspended in HBS/C containing 1% heat-inactivated bovine serum albumin (HI-BSA) at a final concentration of 2-2.5×10^5 cells/ml and used for attachment assays.
Immulon II 96-well plates (DYNEX, Chantilly, Va.) were coated with COMP at various concentrations in HBS/C or HBS containing 5 mM EDTA (HBS/E) at 4° C. overnight. The plates were then blocked with 1% HI-BSA in HBS/C or HBS/E, respectively, for 30 minutes at 37° C. After blocking, some wells coated with proteins in HBS/E were reduced with 20 mM dithiothreitol (DTT) in HBS/E for 30 minutes at 22° C. Wells were washed 4 times with HBS/C before addition of 100 μl of cells to each well and incubated for 2 hours at 37° C. At the end of the incubation, after examination under phase contrast microscopy, the plate was washed 3 times with HBS/C. The amount of cells attached to each well was quantified using CyQuant kit (Molecular Probes, Eugene, Oreg.).

[3] = Direct calcium binding by equilibrium dialysis using 45CaCl2; settings: 0.3 mM free calcium concentration; mean±SD
Experimental: Direct calcium binding to COMP was measured by equilibrium dialysis using ^45CaCl2. Briefly, TSP1 and COMP were dialyzed in Slide-A-Lyzer dialysis units (Pierce, Rockford, Ill.) against dialysis buffer containing 0.3 mM CaCl2 and […] of ^45CaCl2. At the end of dialysis, 10 μl of protein sample and dialysis buffer were taken out for scintillation counting and protein determination. The number of calcium ions bound was calculated. At 0.3 mM free calcium concentration, each TSP1 subunit bound 10±2 calcium ions (mean±SD of four data points). This is in agreement with previous reports where 11-12 calcium ions were reported to bind to each TSP1 subunit (Lawler and Simons, 1983; Misenheimer and Mosher, 1995). Under the same conditions, each subunit of COMP bound 11±1 calcium ions. This is the first time it is shown that COMP binds calcium ions, and the result is consistent with the presence of highly homologous type 3 calcium binding repeats in COMP and other TSP family members.
Direct calcium binding to COMP was measured by equilibrium dialysis using ^45CaCl2. Briefly, TSP1 and COMP were dialyzed in Slide-A-Lyzer dialysis units (Pierce, Rockford, Ill.) against dialysis buffer containing 0.3 mM CaCl2 and 10 mCi/ml of ^45CaCl2. […] The number of calcium ions bound was calculated. […]

[4] = test system: TC1a cells after 7- to 10-day culture in alginate beads; experiment: Attachment of TC1a cells after alginate culture to coated protein; type: cell-based, human
Excerpt: An alginate culture system was used to re-differentiate the chondrocytes as described (Robbins and Goldring, 1998; Goldring, 1998; Hauselmann et al., 1994; Bonaventure et al., 1994). Briefly, cells in monolayer culture were trypsinized and washed with phosphate buffered saline. Cells were resuspended in 1.2% solution of Keltone, LVCR alginate (Monsanto, St. Louis, Mo.) in 0.15 M NaCl at a final concentration of 4×10^6 cells/ml. The cell suspension was then passed through a 22 Gauge needle into 102 mM CaCl2. Ten minutes after instant gelation, beads were washed with 0.15 M NaCl, and cultured in 1:1 DME/F-12 containing 10% FBS and 25 μg/ml ascorbate. To prepare cells in the alginate culture system for attachment assays, 7- to 10-day alginate bead cultures were solubilized with 55 mM citrate/0.15 M NaCl, pH 6.0 solution as described (Robbins and Goldring, 1998). Released cells were washed once with PBS and once with HBS/C before they were resuspended in HBS/C containing 1% BSA at a final concentration of 2-2.5×10^5 cells/ml.
Immulon II 96-well plates (DYNEX, Chantilly, Va.) were coated with COMP at various concentrations in HBS/C or HBS containing 5 mM EDTA (HBS/E) at 4° C. overnight. […] The amount of cells attached to each well was quantified using CyQuant kit (Molecular Probes, Eugene, Oreg.). […]

[5] = test system: Human costochondral cartilage cells; experiment: Transwell chondrocyte migration assay; type: cell-based; settings: for chondrocyte migration: coated on underside of transwell membranes, 37° C., four hours
Experimental: (§1) Furthermore, as discussed in Example 5, COMP is a motility factor for chondrocyte migration. Human costochondral cartilage cells were used to test if COMP is active in promoting chondrocyte migration. COMP, as well as TSP1 and Vitrogen (Cohesion; Palo Alto, Calif.), at different concentrations, was coated on the underside of membranes of transwell migration assay wells. Chondrocyte cells, prepared as in the attachment assays, were loaded into the wells. Migration was allowed to go on at 37° C. for four hours. Nonmigratory cells remaining inside the wells were removed with cotton swabs. Cells which migrated to the underside of the membranes were quantified using a CyQuant kit.
as §1, with “Human” for “Furthermore, as discussed in Example 5, COMP is a motility factor for chondrocyte migration. Human”, “concentrations, were” for “concentrations, was”, “assay wells (Costar, Cambridge, Mass.).” for “assay wells.”, “Cells that” for “Cells which”, “CyQuant kit (Molecular Probes).” for “CyQuant kit.”

[6] = previous reports (Lawler and Simons, 1983; Misenheimer and Mosher, 1995); cited from earlier work
[7] = 2 mM Ca2+, ACE, > means no binding observed at any protein concentration, read-out: COMP, Kd in 2 mM Ca^2+
[8] = 5 mM EDTA, ACE, > means no binding observed at any protein concentration, read-out: COMP, Kd in 5 mM EDTA

T1 sequence (P49747 21-757): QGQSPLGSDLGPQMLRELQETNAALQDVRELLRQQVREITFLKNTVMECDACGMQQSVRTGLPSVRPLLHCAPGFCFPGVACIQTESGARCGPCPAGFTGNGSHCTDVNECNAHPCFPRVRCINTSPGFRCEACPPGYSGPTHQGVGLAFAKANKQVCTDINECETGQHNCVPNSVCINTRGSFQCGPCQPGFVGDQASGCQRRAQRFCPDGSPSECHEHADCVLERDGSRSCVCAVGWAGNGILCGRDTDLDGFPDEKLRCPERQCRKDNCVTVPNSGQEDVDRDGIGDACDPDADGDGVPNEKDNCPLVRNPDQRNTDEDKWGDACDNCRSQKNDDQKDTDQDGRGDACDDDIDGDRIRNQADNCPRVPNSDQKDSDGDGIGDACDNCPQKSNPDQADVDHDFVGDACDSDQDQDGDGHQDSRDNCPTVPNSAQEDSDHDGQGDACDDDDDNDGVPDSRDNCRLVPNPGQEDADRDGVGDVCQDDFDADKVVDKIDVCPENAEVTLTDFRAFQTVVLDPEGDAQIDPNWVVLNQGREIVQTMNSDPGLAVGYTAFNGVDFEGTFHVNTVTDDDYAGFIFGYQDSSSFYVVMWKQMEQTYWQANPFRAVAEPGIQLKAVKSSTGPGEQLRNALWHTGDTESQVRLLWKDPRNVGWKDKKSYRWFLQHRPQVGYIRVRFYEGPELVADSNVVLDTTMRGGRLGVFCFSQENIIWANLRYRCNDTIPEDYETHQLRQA

Heparin
Kd [1, 7]: 89 nM
Kd [1, 8]: 450 nM

cartilage oligomeric matrix protein [hCOMP]
effect on attachment of treating with EDTA before coating ([2]; EDTA before coating): no obvious effect
protein coating concentration at which cells also spread ([2]; calcium replete conformation): ≥ 5 µg/mL
coating concentration at which cells attached and spread ([2]; dithiothreitol-treated): 1 µg/mL
cell attachment ([2]; protein in calcium replete conformation, coated on wells): supported cell attachment in a dose-dependent manner
effect of reduction after coating on adhesive activity ([2]; reduced with DTT after coating, especially at low coating concentration): increased its adhesive activity
calcium ions bound per subunit [3]: 11±1 calcium ions
cell attachment ([4]; calcium replete form, re-differentiated TC1a cells): able to support attachment
decrease of level of attachment by chelation of calcium before coating ([4]; chelation of calcium before coating): approximately 50%
chemoattractant potency compared with TSP1 [5]: more potent chemoattractant than TSP1
chondrocyte migration [5]: good chemoattractant
chemoattractant potency compared with TSP1 ([5]; same concentration of 10 μg/ml): more potent chemoattractant than TSP1

chondroitin-4-sulfate [C4S]
Kd [1, 7]: 583 nM

chondroitin-6-sulfate [C6S]
Kd [1, 7]: 403 nM
binding to hCOMP after EDTA treatment (in words) ([1]; 5 mM EDTA): abolished
Kd [1, 8]: > 11000 nM

dermatan sulfate [DS]
Kd [1, 7]: 328 nM

heparan sulfate [HS]
Kd ([1]; in the presence of calcium, ACE, read-out: binding to hCOMP (Kd)): 1200 nM

human thrombospondin 1 [TSP1]
calcium ions bound per subunit [3]: 10±2 calcium ions
calcium ions bound per subunit, previous reports [6]: 11-12 calcium ions
chondrocyte migration [5]: promotes chondrocyte migration
chondrocyte migration ([5]; listed as TSP 1): promoted chondrocyte migration

keratan sulfate [KS]
Kd [1, 7]: > 11000 nM
binding to hCOMP (in words) ([1]; in the presence of calcium, ACE): did not bind
